system: P. falciparum (NF54 or 3D7 strain); test: P. falciparum proliferation assay in infected human blood cells (SYBR Green); format: cell-based; details: Plasmodium falciparum, Erythrocyte, 72 h, read-out: EC50 (nM), inhibitory efficacy in delaying P. falciparum proliferation in infected human blood cells
Procedure: Assay for P. falciparum Proliferation in Infected Human Blood Cells
Compounds of the invention can be assayed to measure their capacity to inhibit proliferation of P. falciparum parasitemia in infected red blood cells. This parasite proliferation assay measures the increase in parasite DNA content using a DNA intercalating dye, SYBR Green® (INVITROGEN®) which has a high affinity for double stranded DNA.
NF54 or 3D7 P. falciparum strain is grown in complete culturing media until parasitemia reaches 3% to 8% with O+ human erythrocytes. […] 20 μl of screening media is dispensed into 384 well assay plates. 50 nl of compounds of the invention (in DMSO), including antimalarial controls (mefloquine, pyrimethamine and artemisinin), are then transferred into the assay plates, as well as DMSO alone to serve as a negative control for inhibition. Then 30 μl of a suspension of a NF54 or 3D7 P. falciparum infected erythrocytes in screening media is dispensed into the assay plates such that the final hematocrit is 2.5% with a final parasitemia of 0.3%. The plates are placed in a 37° C. incubator for 72 hours in a low oxygen environment containing 93% N2, 4% CO2, and 3% O2 gas mixture. 10 μl of lysis buffer (saponin, triton-X, EDTA) containing a 10× solution of SYBR Green I® in RPMI media is dispensed into the plates. The plates are lidded and kept at room temperature overnight for the lysis of the infected red blood cells. The fluorescence intensity is measured (excitation 425 nm, emission 530 nm) using the Envision™ system (Perkin Elmer). The percentage inhibition of 50%, EC50, is calculated for each compound.

Compound | EC50
N#Cc1ccc(N(C(=O)c2ccn3ncc(-c4ccc(C(N)=O)cn4)c3c2)C2CC2)cc1 [Example 142, 3-(5-Carbamoylpyridin-2-yl)-N-(4-cyanophenyl)-N-cyclopropylpyrazolo[1,5-a]pyridine-5-carboxamide] | 48 nM

same assay, conditions: Plasmodium falciparum, Erythrocyte; infected human erythrocytes, 72 hours, SYBR Green fluorescence; read-out: EC50 (nM), inhibitory efficacy in delaying P. falciparum proliferation in infected human blood cells

Compound | EC50
CNC(=O)c1ccc(-c2cnn3ccc(C(=O)N(c4ccc(F)cn4)C4CC4)cc23)cc1 [Example 125, N-Cyclopropyl-N-(5-fluoropyridin-2-yl)-3-(4-(methylcarbamoyl)phenyl)pyrazolo[1,5a]pyridine-5-carboxamide] | 80 nM
CNC(=O)c1ccc(-c2cnn3ccc(C(=O)N(c4ccc(C(F)(F)F)cn4)C4CC4)cc23)cc1 [Example 132, N-Cyclopropyl-3-(4-(methylcarbamoyl)phenyl)-N-(5-(trifluoromethyl)pyridin-2-yl)pyrazolo[1,5-a]pyridine-5-carboxamide] | 29 nM
CCNC(=O)c1ccc(-c2cnn3ccc(C(=O)N(c4ccc(C#N)cn4)C4CC4)cc23)cc1 [Example 127, N-(5-Cyanopyridin-2-yl)-N-cyclopropyl-3-(4-(ethylcarbamoyl)phenyl)pyrazolo[1,5-a]pyridine-5-carboxamide] | 49 nM
N#Cc1ccc(N(C(=O)c2ccn3ncc(-c4ccc(C(=O)NC5COC5)cc4)c3c2)C2CC2)nc1 [Example 131, N-(5-Cyanopyridin-2-yl)-N-cyclopropyl-3-(4-(oxetan-3-ylcarbamoyl)phenyl)pyrazolo[1,5-a]pyridine-5-carboxamide] | 324 nM
N#Cc1ccc(N(C(=O)c2ccn3ncc(-c4ccc(C(N)=O)cc4)c3c2)C2CC2)cc1 [Example 134, 3-(4-carbamoylphenyl)-N-(4-cyanophenyl)-N-cyclopropylpyrazolo[1,5-a]pyridine-5-carboxamide] | 4 nM
CC(C)NC(=O)c1ccc(-c2cnn3ccc(C(=O)N(c4ccc(C#N)cn4)C4CC4)cc23)cc1 [Example 121, N-(5-Cyanopyridin-2-yl)-N-cyclopropyl-3-(4-(isopropylcarbamoyl)phenyl)pyrazolo[1,5-a]pyridine-5-carboxamide] | 1160 nM
N#Cc1ccc(N(C(=O)c2ccn3ncc(-c4ccc(C(N)=O)cc4)c3c2)C2CC2)nc1 [Example 120, 3-(4-Carbamoylphenyl)-N-(5-cyanopyridin-2-yl)-N-cyclopropylpyrazolo[1,5-a]pyridine-5-carboxamide] | 9 nM
N#Cc1ccc(N(C(=O)c2ccn3ncc(-c4ccc(C(=O)NC5CC5)cc4)c3c2)C2CC2)nc1 [Example 123, N-(5-Cyanopyridin-2-yl)-N-cyclopropyl-3-(4-(cyclopropylcarbamoyl)phenyl)pyrazolo[1,5a]pyridine-5-carboxamide] | 393 nM
CNC(=O)c1ccc(-c2cnn3ccc(S(=O)(=O)N(c4ccc(C#N)cn4)C4CC4)cc23)cc1 [Example 164, 4-(5-(N-(5-Cyanopyridin-2-yl)-N-cyclopropylsulfamoyl)pyrazolo[1,5-a]pyridin-3-yl)-N-methylbenzamide] | 2 nM
N#Cc1ccc(N(C(=O)c2ccn3ncc(-c4ccc(C(N)=O)cn4)c3c2)C2CC2)nc1 [Example 139, 3-(5-Carbamoylpyridin-2-yl)-N-(5-cyanopyridin-2-yl)-N-cyclopropylpyrazolo[1,5-a]pyridine-5-carboxamide] | 30 nM
CNC(=O)c1ccc(-c2cnn3ccc(C(=O)N(c4ccc(Cl)cn4)C4CC4)cc23)cc1 [Example 124, N-(5-Chloropyridin-2-yl)-N-cyclopropyl-3-(4-(methylcarbamoyl)phenyl)pyrazolo[1,5-a]pyridine-5-carboxamide] | 19 nM
CNC(=O)c1ccc(-c2cnn3ccc(C(=O)N(c4ccc(C(=O)O)cn4)C4CC4)cc23)cc1 [Example 128, 6-(N-Cyclopropyl-3-(4-(methylcarbamoyl)phenyl)pyrazolo[1,5-a]pyridine-5-carboxamido) nicotinic acid] | 4270 nM
N#Cc1ccc(N(C(=O)c2ccn3ncc(-c4ccc(C(N)=O)nc4)c3c2)C2CC2)cc1 [Example 138, 3-(6-Carbamoylpyridin-3-yl)-N-(4-cyanophenyl)-N-cyclopropylpyrazolo[1,5-a]pyridine-5-carboxamide] | 10 nM
N#Cc1ccc(N(CCO)C(=O)c2ccn3ncc(-c4ccc(C(N)=O)cc4)c3c2)cc1 [Example 105, 3-(4-Carbamoylphenyl)-N-(4-cyanophenyl)-N-(2-hydroxyethyl)pyrazolo[1,5-a]pyridine-5-carboxamide] | 935 nM
N#Cc1ccc(N(C2CC2)S(=O)(=O)c2ccn3ncc(-c4ccc(C(N)=O)cc4)c3c2)nc1 [Example 165, 4-(5-(N-(5-cyanopyridin-2-yl)-N-cyclopropylsulfamoyl)pyrazolo[1,5-a]pyridin-3-yl)benzamide] | 3 nM

Further lines, results first:

EC50 | Compound
12 nM | CNC(=O)c1ccc(-c2cnn3ccc(C(=O)N(c4ccc(F)c(F)c4)C4CC4)cc23)cc1 [Example 130, N-Cyclopropyl-N-(3,4-difluorophenyl)-3-(4-(methylcarbamoyl)phenyl)pyrazolo[1,5-a]pyridine-5-carboxamide]
67 nM | CNC(=O)c1ccc(-c2cnn3ccc(C(=O)N(c4ccc(C#N)cn4)C4CCCC4)cc23)cc1 [Example 126, N-(5-Cyanopyridin-2-yl)-N-cyclopentyl-3-(4-(methylcarbamoyl)phenyl)pyrazolo[1,5-a]pyridine-5-carboxamide]
521 nM | CNC(=O)c1ccc(-c2cnn3ccc(C(=O)Nc4ccc(C#N)cn4)cc23)cc1 [Example 106, N-(5-Cyanopyridin-2-yl)-3-(4-(methylcarbamoyl)phenyl)pyrazolo[1,5-a]pyridine-5-carboxamide]
2440 nM | CNC(=O)c1ccc(-c2cnn3ccc(C(=O)N(c4ccc(C(N)=O)cn4)C4CC4)cc23)cc1 [Example 129, N-(5-Carbamoylpyridin-2-yl)-N-cyclopropyl-3-(4-(methylcarbamoyl)phenyl)pyrazolo[1,5-a]pyridine-5-carboxamide]
6160 nM | CN(C(=O)c1ccn2ncc(-c3ccc(C(=O)O)cc3)c2c1)c1ccc(C#N)cn1 [Example 101, 4-(5-((5-Cyanopyridin-2-yl)(methyl)carbamoyl)pyrazolo[1,5-a]pyridin-3-yl)benzoic acid]
> 10000 nM | CNC(=O)c1ccc(-c2cnn3ccc(C(=O)N(C)c4ccc(OC)nc4)cc23)cc1 [Example 122, N-(6-Methoxypyridin-3-yl)-N-methyl-3-(4-(methylcarbamoyl)phenyl)pyrazolo[1,5-a]pyridine-5-carboxamide]
1 nM | NC(=O)c1ccc(-c2cnn3ccc(C(=O)N(c4ccc(F)c(F)c4)C4CC4)cc23)cc1 [Example 135, 3-(4-Carbamoylphenyl)-N-cyclopropyl-N-(3,4-difluorophenyl)pyrazolo[1,5-a]pyridine-5-carboxamide]

same assay, conditions: Plasmodium falciparum; read-out: EC50, P. falciparum Proliferation Assay

Compound | EC50
CN(C(=O)c1ccn2ncc(-c3cnc4[nH]ccc4c3)c2c1)c1ccc(C#N)cn1 [Example 53, N-(5-cyanopyridin-2-yl)-N-methyl-3-(1H-pyrrolo[2,3-b]pyridin-5-yl)pyrazolo[1,5-a]pyridine-5-carboxamide] | < 5 nM
CN(C(=O)c1ccn2ncc(-c3cnc(N)nc3)c2c1)c1ccc(C#N)cc1 [Example 83, 3-(2-aminopyrimidin-5-yl)-N-(4-cyanophenyl)-N-methylpyrazolo[1,5-a]pyridine-5-carboxamide] | < 5 nM
CN(C(=O)c1ccn2ncc(-c3cnc4[nH]ccc4c3)c2c1)c1ccc(C#N)cc1 [Example 40, N-(4-cyanophenyl)-N-methyl-3-(1H-pyrrolo[2,3-b]pyridin-5-yl)pyrazolo[1,5-a]pyridine-5-carboxamide] | < 5 nM

The next lines start with the values.

EC50 | Compound
< 5 nM | CN(C(=O)c1ccn2ncc(-c3ccc(N)nc3)c2c1)c1ccc(C#N)cc1 [Example 41, 3-(6-aminopyridin-3-yl)-N-(4-cyanophenyl)-N-methylpyrazolo[1,5-a]pyridine-5-carboxamide]
< 5 nM | C[C@@H](N)C(=O)Nc1ccc(-c2cnn3ccc(C(=O)N(C)c4ccc(C#N)cc4)cc23)cc1 [Example 44, (R)-3-(4-(2-aminopropanamido)phenyl)-N-(4-cyanophenyl)-N-methylpyrazolo[1,5-a]pyridine-5-carboxamide]

Source: patent US9556169B2, “Compounds and compositions for the treatment of parasitic diseases” (NOVARTIS AG, priority 2012, dated 2017)
